Data taken from US20210070687A1, “MOLECULAR WEIGHT CONTROLLING AGENT FOR RADICAL POLYMERIZATION, METHOD FOR PRODUCING POLYMER USING SAME, AND POLYMER” (SDP Global Co., Ltd., priority 2017, published 2021).

Test: Solubility in water at 20° C. of the iodine compounds
Conditions: % means % by weight

Row | Compound | Solubility in water (20° C.) [%]
1 | CC(C)(I)C(=O)[O-].[Na+] [Example 5, Sodium 2-iodo-2-methylpropionate] | >10
2 | CC(C)(I)C(=O)O [Example 1, 2-Iodo-2-methylpropionic acid] | 1.9
3 | CCOC(=O)C(C)(C)I [Reference Example 5, Ethyl 2-iodo-2-methylpropionate, reference compound] | <0.1

Second part, the compound after the results:

Row | Solubility in water (20° C.) [%] | Compound
4 | 0.1 | O=C(O)C(I)c1ccccc1 (centres unmarked) [Reference Example 1, 2-Iodo-2-phenylacetic acid, reference compound]
5 | 1.2 | CC(I)C(N)=O (centres unmarked) [Example 2, 2-Iodopropionamide]
6 | 3.2 | CC(C)(I)C(=O)OCCO [Example 3, 2-Hydroxyethyl 2-iodo-2-methylpropionate]
7 | >10 | O=C([O-])C(I)c1ccccc1.[Na+] (centres unmarked) [Example 6, Sodium 2-iodo-2-phenylacetate]
8 | 0.2 | CCOC(=O)C(C)I (centres unmarked) [Reference Example 4, Ethyl 2-iodopropionate, reference compound]
